The text below walks through data of ChEMBL document CHEMBL4152325, “Tacripyrimidines, the first tacrine-dihydropyrimidine hybrids, as multi-target-directed ligands for Alzheimer's disease” (Eur J Med Chem, 2018).

Active and inactive are the calls of the source. The calls are words filed in the database; no cut-off is given here.

Data set [1] in a line: in vitro. The note with it: human, HepG2 cells.
Description: Cytotoxicity against human HepG2 cells assessed as cell viability at 100 uM after 24 hrs by CellTiter-Glo luminescence assay relative to control
The nature of data set [2]: in vitro. The note with it: human, HepG2 cells. The source holds these as a separate data set.
Description: Cytotoxicity against human HepG2 cells assessed as cell viability at 300 uM after 24 hrs by CellTiter-Glo luminescence assay relative to control
Another data set concerns the target Cholinesterase (Homo sapiens, UniProt P06276). Briefly: Inhibition of recombinant human serum BChE using butyrylthiocholine as substrate pretreated for 20 mins followed by substrate addition by Ellman's method. For orientation: In Ellman's method for cholinesterases, released thiocholine reacts with DTNB.
Data set [3] addresses T1, Acetylcholinesterase (Homo sapiens, UniProt P22303). Briefly: Inhibition of recombinant human AChE expressed in HEK293 cells using acetylthiocholine as substrate pretreated for 20 mins followed by substrate addition by Ellman's method. Type of data set: cell-based.
Data set [4] in a line: in vitro. The note with it: human, HepG2 cells. The source holds these as a separate data set.
Description: Cytotoxicity against human HepG2 cells assessed as cell viability at 10 uM after 24 hrs by CellTiter-Glo luminescence assay relative to control
The target in data set [5] is Amyloid-beta precursor protein (Homo sapiens) (UniProt P05067). Briefly: Inhibition of HFIP-pretreated amyloid beta (1 to 42 residues) (unknown origin) self aggregation at 50 uM after 24 hrs by ThT-based fluorometric method relative to control.
Data set [6] addresses T1, Acetylcholinesterase. Briefly: Non-competitive inhibition of recombinant human AChE expressed in HEK293 cells using varying levels of acetylthiocholine as substrate by Lineweaver-burk double reciprocal plot analysis. Type of data set: cell-based.
Data set [7] has as its target T1, Acetylcholinesterase. The data set is described as follows: Potency index, ratio of tacrine IC50 to test compound IC50 for recombinant human AChE expressed in HEK293 cells. Type of data set: cell-based.
For data set [8], the target named is T1, Acetylcholinesterase. Briefly: Non-competitive inhibition of recombinant human AChE expressed in HEK293 cells assessed as enzyme-substrate-inhibitor complex using varying levels of acetylthiocholine as substrate by Dixon plot analysis.

The viability is a read-out of living cells in per cent, often relative to untreated cells. The term IC50 denotes the concentration that inhibits the measured activity by half. As a reminder, the inhibition is the drop in the measured response relative to a control, in per cent. By Ki is commonly meant a measure of affinity in units of concentration, obtained from inhibition or displacement.

T1 sequence (P22303 whole entry): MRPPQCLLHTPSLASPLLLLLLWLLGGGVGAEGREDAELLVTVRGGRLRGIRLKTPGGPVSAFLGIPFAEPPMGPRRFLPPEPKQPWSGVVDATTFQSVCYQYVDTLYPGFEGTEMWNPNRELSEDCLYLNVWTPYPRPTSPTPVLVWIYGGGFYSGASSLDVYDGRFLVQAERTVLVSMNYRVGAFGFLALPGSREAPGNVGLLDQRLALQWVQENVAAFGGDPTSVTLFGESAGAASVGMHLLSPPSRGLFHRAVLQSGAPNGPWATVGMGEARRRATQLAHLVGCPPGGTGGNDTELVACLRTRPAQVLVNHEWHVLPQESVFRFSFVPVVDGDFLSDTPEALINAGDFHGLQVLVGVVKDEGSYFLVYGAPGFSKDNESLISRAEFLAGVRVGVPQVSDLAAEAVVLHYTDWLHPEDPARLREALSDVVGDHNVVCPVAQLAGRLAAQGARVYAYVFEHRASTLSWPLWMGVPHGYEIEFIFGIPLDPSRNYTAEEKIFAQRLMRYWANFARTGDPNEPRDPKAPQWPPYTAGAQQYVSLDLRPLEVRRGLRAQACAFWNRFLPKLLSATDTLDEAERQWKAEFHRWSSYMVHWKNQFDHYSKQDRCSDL
Sequence of Cholinesterase (P06276 whole entry): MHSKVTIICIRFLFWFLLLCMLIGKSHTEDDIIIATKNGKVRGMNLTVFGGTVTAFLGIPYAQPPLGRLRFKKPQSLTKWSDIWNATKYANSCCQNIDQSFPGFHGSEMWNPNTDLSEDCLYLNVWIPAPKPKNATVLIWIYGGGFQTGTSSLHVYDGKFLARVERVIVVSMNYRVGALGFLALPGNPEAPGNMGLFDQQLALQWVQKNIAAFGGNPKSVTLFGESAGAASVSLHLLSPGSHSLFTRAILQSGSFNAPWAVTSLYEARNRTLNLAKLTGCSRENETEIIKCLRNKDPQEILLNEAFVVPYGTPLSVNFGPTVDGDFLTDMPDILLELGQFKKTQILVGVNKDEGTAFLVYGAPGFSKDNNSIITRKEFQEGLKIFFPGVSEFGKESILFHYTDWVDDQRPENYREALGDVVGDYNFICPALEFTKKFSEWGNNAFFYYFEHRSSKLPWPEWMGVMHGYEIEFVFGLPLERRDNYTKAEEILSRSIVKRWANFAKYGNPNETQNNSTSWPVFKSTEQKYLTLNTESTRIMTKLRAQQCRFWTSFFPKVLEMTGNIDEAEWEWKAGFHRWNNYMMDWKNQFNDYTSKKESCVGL
Sequence of Amyloid-beta precursor protein (Homo sapiens) (P05067 whole entry, the tested form may be a part): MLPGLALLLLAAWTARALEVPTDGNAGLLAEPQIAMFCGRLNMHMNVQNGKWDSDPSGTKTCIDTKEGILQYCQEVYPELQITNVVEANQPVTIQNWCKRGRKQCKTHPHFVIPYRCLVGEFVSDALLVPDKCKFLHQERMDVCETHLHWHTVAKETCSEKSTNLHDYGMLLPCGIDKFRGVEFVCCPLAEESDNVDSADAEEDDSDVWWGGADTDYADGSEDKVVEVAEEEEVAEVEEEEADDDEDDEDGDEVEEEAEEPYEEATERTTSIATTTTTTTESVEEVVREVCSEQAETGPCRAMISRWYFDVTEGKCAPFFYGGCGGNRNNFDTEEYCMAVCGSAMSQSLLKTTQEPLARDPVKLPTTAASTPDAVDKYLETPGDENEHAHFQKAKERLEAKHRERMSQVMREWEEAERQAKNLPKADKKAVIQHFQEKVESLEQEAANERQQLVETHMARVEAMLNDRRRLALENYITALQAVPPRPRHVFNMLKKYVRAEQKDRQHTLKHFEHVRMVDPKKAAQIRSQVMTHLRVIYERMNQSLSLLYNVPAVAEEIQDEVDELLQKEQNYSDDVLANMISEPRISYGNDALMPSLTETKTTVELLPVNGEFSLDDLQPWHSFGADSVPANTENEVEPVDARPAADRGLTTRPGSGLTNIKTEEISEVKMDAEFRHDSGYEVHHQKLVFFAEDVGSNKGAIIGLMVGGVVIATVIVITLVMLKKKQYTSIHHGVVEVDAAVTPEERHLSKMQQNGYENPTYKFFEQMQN

For `Nc1c2c(nc3c1C(c1ccc(F)cc1)NC(=S)N3)CCCC2` (stereo not drawn), in the data set “in vitro [1]”, the viability at 24 h, 100 µM was 79.1%. Further, in “in vitro [2]”, the viability at 24 h, 300 µM worked out at 72.5%. In addition, the results for the IC50 at Cholinesterase and on Acetylcholinesterase [3] were 10 µM and 31 µM, respectively. Also, the viability at 24 h, 10 µM in the data set “in vitro [4]” worked out at 104%.

With `Nc1c2c(nc3c1C(c1cccc(Br)c1)NC(=S)N3)CCCC2` (stereo not drawn), the viability at 24 h, 100 µM in “in vitro [1]” was 76.8%. In the data set “in vitro [2]”, the viability at 24 h, 300 µM came to 62.3%. The inhibition in [5] was 10%. Also, the IC50 on Cholinesterase is 1.27 µM; at Acetylcholinesterase [3] it was 0.0373 µM. For the same compound, the inhibition result on Acetylcholinesterase [6] was “Active”. Besides, the Ratio IC50 at Acetylcholinesterase [7] lay in the range of 9.4 to 10. The Ki on Acetylcholinesterase [8] was determined as 0.147 µM. Moreover, in the data set “in vitro [4]”, the viability at 24 h, 10 µM is 103%.

Consider `Nc1c2c(nc3c1C(c1ccc4c(c1)OCO4)NC(=S)N3)CCCC2` (stereo not drawn), for which the viability at 24 h, 100 µM in “in vitro [1]” is 91.2%. The viability at 24 h, 300 µM in the data set “in vitro [2]” was found to be 64.1%. For the same compound, the IC50 at Cholinesterase worked out at 37.5 µM; at Acetylcholinesterase [3] it was 8.18 µM. In addition, in the data set “in vitro [4]”, the viability at 24 h, 10 µM was found to be 103%.

Take `Nc1c2c(nc3c1C(c1cccc([N+](=O)[O-])c1)NC(=S)N3)CCCC2` (stereo not drawn): the viability at 24 h, 100 µM in “in vitro [1]” was determined as 96.5%. Besides, the viability at 24 h, 300 µM in the data set “in vitro [2]” was 82.7%. Also, the IC50 on Cholinesterase is 2.68 µM; at Acetylcholinesterase [3] it was 29.8 µM. For the same compound, the viability at 24 h, 10 µM in “in vitro [4]” worked out at 102%.

For the compound `COc1ccccc1C1NC(=S)Nc2nc3c(c(N)c21)CCCC3` (stereo not drawn), the viability at 24 h, 100 µM in “in vitro [1]” came to 81.1%. Besides, the viability at 24 h, 300 µM in the data set “in vitro [2]” is 68.1%. Further, the IC50 at Cholinesterase is 11.7 µM; on Acetylcholinesterase [3] it was 31.2 µM. Also, in the data set “in vitro [4]”, the viability at 24 h, 10 µM stood at 98.1%.

As for `Nc1c2c(nc3c1C(c1ccc(Cl)cc1)NC(=S)N3)CCCC2` (stereo not drawn), the viability at 24 h, 100 µM in “in vitro [1]” came out at 27.9%. Moreover, the viability at 24 h, 300 µM in “in vitro [2]” turned out to be 9%. In addition, the inhibition in data set [5] worked out at 10%. In addition, the concentration for half-maximal inhibition (IC50) on Cholinesterase worked out at 0.372 µM; at Acetylcholinesterase [3] it was 5.28 µM. The viability at 24 h, 10 µM in “in vitro [4]” was 80%.

`COc1cccc(C2NC(=S)Nc3nc4c(c(N)c32)CCCC4)c1` (stereo not drawn): in the data set “in vitro [1]”, the viability at 24 h, 100 µM amounted to 102%. Also, the viability at 24 h, 300 µM in “in vitro [2]” came out at 97.5%. In addition, the inhibition in data set [5] came out at 10%. Moreover, the IC50 on Cholinesterase came out at 3.19 µM; on Acetylcholinesterase [3], 3.05 µM. The inhibition entry at Acetylcholinesterase [6] is “Active”. In addition, at Acetylcholinesterase [8], the Ki stood at 3.88 µM. For the same compound, the viability at 24 h, 10 µM in “in vitro [4]” is 100%.

In the case of `CN(C)c1ccc(C2NC(=S)Nc3nc4c(c(N)c32)CCCC4)cc1` (stereo not drawn), the viability at 24 h, 100 µM in the data set “in vitro [1]” is 82.5%. The viability at 24 h, 300 µM in “in vitro [2]” was found to be 78.9%. Also, the IC50 on Cholinesterase was 154 µM; on Acetylcholinesterase [3] it was 24.1 µM. In addition, the viability at 24 h, 10 µM in the data set “in vitro [4]” came to 87.3%.

On to `Cc1ccc(C2NC(=S)Nc3nc4c(c(N)c32)CCCC4)cc1` (stereo not drawn), for which the viability at 24 h, 100 µM in the data set “in vitro [1]” turned out to be 62%. Besides, the viability at 24 h, 300 µM in the data set “in vitro [2]” is 45.2%. Also, the figures for the IC50 on Cholinesterase and at Acetylcholinesterase [3] were 3.47 µM and 23.8 µM, respectively. The viability at 24 h, 10 µM in “in vitro [4]” stood at 90.6%.

For the compound `Nc1c2c(nc3c1C(c1ccccc1)NC(=S)N3)CCCC2` (stereo not drawn), the viability at 24 h, 100 µM in “in vitro [1]” was 97.2%. Further, the viability at 24 h, 300 µM in the data set “in vitro [2]” is 68.2%. For the same compound, the 50% inhibitory concentration (IC50) was determined as 5.68 µM at Cholinesterase and 10.8 µM on Acetylcholinesterase [3]. The viability at 24 h, 10 µM in “in vitro [4]” came out at 105%.

For the compound `COc1ccc(C2NC(=S)Nc3nc4c(c(N)c32)CCCC4)cc1` (stereo not drawn), the viability at 24 h, 100 µM in the data set “in vitro [1]” turned out to be 100%. The viability at 24 h, 300 µM in “in vitro [2]” stood at 77.6%. Also, the IC50 on Cholinesterase came out at 1.75 µM; on Acetylcholinesterase [3] it was 7.64 µM. In “in vitro [4]”, the viability at 24 h, 10 µM is 97.9%.

With `Cc1cccc(C2NC(=S)Nc3nc4c(c(N)c32)CCCC4)c1` (stereo not drawn), the viability at 24 h, 100 µM in “in vitro [1]” was 82.5%. In “in vitro [2]”, the viability at 24 h, 300 µM was found to be 68.1%. Besides, the IC50 is 2.65 µM at Cholinesterase and 10.1 µM at Acetylcholinesterase [3]. In addition, in the data set “in vitro [4]”, the viability at 24 h, 10 µM worked out at 97.6%.
